# Test results as given in patent publication EP0762895B1, “SYNTHETIC VACCINE FOR PROTECTION AGAINST HUMAN IMMUNODEFICIENCY VIRUS INFECTION” (DUKE UNIVERSITY, priority 1994, dated 1995).
# Like-named read-outs stand apart in the source and are kept apart here. Where no end group is shown, it is not given here.
# Experiments:
# T cells = conditions: share of population studied, cited from earlier work
# [1] = system: Normal Human Peripheral Blood Lymphocytes
# [2] = T helper epitopes of Schrier et al 1989
# [3] = T helper epitopes of Clerici et al 1989
Substance,% Responding (T cells; [2]),further results
"pol-3: T helper epitope, amino acids 942-954 of pol",48%,–
"gp120-5: T helper epitope, amino acids 368-377 of gp120 (DPEIVTHSFN; Envelope glycoprotein gp120; UniProt P04578 368-377, looked up, fragment)",21%,–
"gp41-1: T helper epitope, amino acids 603-614 of gp41 (ICTTAVPWNASW; Transmembrane protein gp41; UniProt P04578 603-614, looked up, fragment)",41%,–
"gp41-7: T helper epitope, amino acids 584-609 of gp41 (ERYLKDQQLLGIWGCSGKLICTTAVP; Transmembrane protein gp41; UniProt P04578 584-609, looked up, fragment)",24%,–
"pol-4: T helper epitope, amino acids 720-730 of pol (PSINNETPGIR; UniProt P04585 720-730, looked up, fragment)",35%,–
"CTRPNNNTRKSIRIQRGPG [SP-10, CTRPNNNTRKSIRIQRGPG]",–,Inhibition of normal T cell response to tetanus toxoid [1]: no inhibition of normal T cell response to tetanus toxoid was observed
"pol-1: T helper epitope, amino acids 899-913 of pol",28%,–
HEDIISLWNQSLK [T2],–,% Responding (T cells; [3]): 54%
KQIINMWQEVGKAMYA [T1],–,% Responding (T cells; [3]): 77%
"pol-2: T helper epitope, amino acids 923-937 of pol",38%,–
"gp120-2: T helper epitope, amino acids 115-126 of gp120 (SLKPCVKLTPLC; Envelope glycoprotein gp120; UniProt P04578 115-126, looked up, fragment)",38%,–
"gp41-5: T helper epitope, amino acids 737-749 of gp41 (GGERDRDRSIRLV; Transmembrane protein gp41; UniProt P04578 737-749, looked up, fragment)",21%,–
"TH4: T helper epitope, amino acids 834-848 of gp41 (QGACRAIRHIPRRIR; Transmembrane protein gp41; UniProt P04578 834-848, looked up, fragment)",–,% Responding (T cells; [3]): 75%
"gp41-3: T helper epitope, amino acids 655-667 of gp41 (KNEQELLELDKWA; Transmembrane protein gp41; UniProt P04578 655-667, looked up, fragment)",38%,–
"gp41-2: T helper epitope, amino acids 609-620 of gp41 (PWNASWSNKSLE; Transmembrane protein gp41; UniProt P04578 609-620, looked up, fragment)",42%,–
